Source: patent US10548937B2, “Composition for the treatment of arthropathies and osteoarthritis” (Kolinpharma S.p.A., priority 2014, dated 2020)

How the values were obtained:
Assay type in all cases: cell-based
[1] = system: nuclear translocation of NF-kB in human chondrocytes; experiment: Nuclear translocation of NF-kB (Test 1b), immunolabelling and confocal microscope; conditions: IL-1β about 20 hours
Method: (§1) Human chondrocytes (Lonza, cat. N. CC-2550) derived from knee tissue were cultured in Chondrocyte Growth Medium (Lonza, cat. N. CC-3216) prepared according to the manufacturer's instructions with the addition of R3-insulin-like growth factor-1 [R3-IGF-1], human recombinant fibroblast growth factor beta [hrFGF-β], transferrin, insulin, foetal bovine serum [FBS] and gentamicin/amphotericin-B [GA]. The cells were maintained in an incubator at 37° C. and 5% CO2 and seeded every 3-4 days at a density of about 1×10^4 cells/cm^2.
(§2) After about 16-20 hours of incubation, the cells were processed for the various tests.
The chondrocytes were seeded onto 13 mm glass slides and, once they had reached confluence, were incubated overnight with the various treatments. […]
Images of the samples thus prepared were acquired on a confocal microscope (TCS SPE UV, Leica Microsystems) and were analysed with the software ImageJ v1.47h (http://imagej.nih.gov/ij) for the quantification of the nuclear translocation of NF-kB (Noursadeghi M et al., Journal of Immunological Methods, 2008, vol. 329, pages 194-200). […] These masks were then applied to the original NF-kB signals to calculate the fluorescence intensity in the nucleus and in the cytoplasm from the histograms of the intensities created with ImageJ. The mean fluorescence intensity ratio between the nucleus and the cytoplasm was then calculated for each sample.

[2] = system: human chondrocytes; experiment: MTT test (Test 0), cell vitality; conditions: overnight incubation, 'likewise' = did not prove toxic
Method: as §1, §2
This colorimetric test is based on the transformation of the tetrazolium salt MTT (yellow) into formazan (violet), by the succinate-tetrazolium reductase system, which belongs to the mitochondrial respiratory chain and is active only in metabolically active cells. […] An insoluble colorant forms during this period, which, after dissolving by adding dissolution solution to the samples (10% SDS in 10 mM HCl) and after incubating overnight in an incubator, may be quantified by reading the absorbance of the samples at 595 nm (using 750 nm as reference wavelength). The measured absorbance correlates directly with the number of live cells.
To exclude a possible toxic effect attributable to the chosen incubation protocol, the cell vitality was quantified by means of an MTT test. […]

[3] = system: TNFα production by human chondrocytes; experiment: ELISA test (Test 1a), TNFα in culture medium
Method: as §1, §2
In the “sandwich” ELISA test, a 96-well plate is covered with a monoclonal antibody specific for a given cytokine. […] The addition of a sulfuric acid solution changes the colour of the solution from blue to yellow, blocking the development of the colour and allowing accurate reading of the absorbance of the samples at 450 nm.
For the purposes of the treatment, the medium was harvested and stored at −80° C. until the time of use for the test. […] The concentrations of cytokines released into the culture medium were then expressed as pg of cytokine/mg of total protein of the sample. […]
Release into the culture medium of the pro-inflammatory cytokines TNFα, IL-6 and IL-8 by the human chondrocytes was evaluated both in the absence and in the presence of stimulation with IL-1β for 16 hours. […]

Structure (SMILES)	effect on the translocation of NF-kB to the nucleus ([1]; diclofenac 100 μM)	toxicity to chondrocytes (MTT, cell vitality) ([2]; 100 μM)	effect on the production of TNFα ([3]; 100 μM in the culture medium)	effect on the translocation of NF-kB to the nucleus ([1]; celecoxib 10 μM)	toxicity to chondrocytes (MTT, cell vitality) ([2]; 10 μM)	effect on the production of TNFα ([3]; 10 μM in the culture medium)
O=C(O)Cc1ccccc1Nc1c(Cl)cccc1Cl [diclofenac]	no significant effect	likewise for the incubation with the positive controls	no effect			
Cc1ccc(-c2cc(C(F)(F)F)nn2-c2ccc(S(N)(=O)=O)cc2)cc1 [celecoxib]				no significant effect	likewise for the incubation with the positive controls	no effect
